# Test results taken from patent publication US20240108598A1, “Danegaptide for Use in the Treatment or Prevention of a Kidney Disease” (CIANA THERAPEUTICS APS, priority 2021, published 2024).
# Legend:
# Cx43 hemichannels = biological target: T1, Cx43 hemichannels (Homo sapiens, UniProt P17302); test: Carboxyfluorescein dye uptake assay in primary hPTECs; type: cell-based; conditions: 48 h
# T1 construct: host or cells: HK2 human kidney proximal tubule epithelial cell line
# Description: In panel A, HK2 cells were cultured in low glucose (5 mM) with/without TGFβ1 (10 ng/ml)±danegaptide (50, 100 and 1000 nM) for 48 h and cell viability assessed. Results are presented as mean±SEM, n=3. […] Addition of danegaptide (50 or 100 nM) reduced dye uptake, returning fluorescence intensity to control levels. Intensity is expressed as percentage compared to low glucose control and is representative of 3 separate experiments. Data is presented as mean±SEM, n=3 with key significances indicated (**P<0.01, ***P<0.001); one-way ANOVA and Tukey's post-test).
# HK2 and HPTEC cells were seeded onto fluorodishes (22 mm diameter) and cultured in low glucose DMEM/F12 (5 mmol/1) for 48 h. Following an overnight serum-starvation, cells were incubated with TGFβ1 (10 ng/ml)±danegaptide (100 nM) for 48 h. For subsequent steps, a balanced salt solution (BSS, pH7.0) was used, comprising of NaCl (137 mM), KCl (5.4 mM), MgSO4 (0.8 mM), Na2HPO4 (0.3 mM), KH2PO4 (0.4 mM), NaHCO3 (4.2 mM), HEPES (10 mM) and glucose (5 mM). […] ImageJ was used to quantify dye uptake, where a region of interest (ROI) was drawn around each cell (approx. 10-15 cells/dish) and mean pixel intensity measured. A background fluorescence value was subtracted from each ROI.
# primary hPTECs = test: Western blotting of extracellular matrix proteins; type: cell-based, human; conditions: 48 h
# Description: Primary hPTECs were cultured in low (5 mM) glucose±TGFβ1 (10 ng/mL)±danegaptide (100 nM) for 48 h. In panel A, expression of the ECM proteins collagen I (Col1), collagen IV (Col4), fibronectin (Fibro), and Laminin (panel B) were assessed via western blotting. […] Danegaptide partially reversed the TGFβ1 evoked change in Integrin Linked Kinase 1 (ILK1; ▴▴▴P<0.001) but had negligible effect on Matrix Metalloproteinase 3 (MMP3). All bars correspond mean±SEM, (n=3) and representative blots are shown with expression normalised by re-probing for α-tubulin as a loading control.
# To determine if danegaptide can negate TGFβ1-mediated changes in adherens and tight junction proteins, hPTECs were incubated with TGFβ1 (10 ng/mL)±danegaptide (100 nM) for 48 h and expression of candidate proteins assessed by Western blotting. Preparation of cytosolic protein from HK2 and HPTEC cells, their separation by SDS-gel electrophoresis and transfer onto Immobilon-FI PVDF membranes have been described previously (Price, G. W.; Chadjichristos, C. E.; Kavvadas, P.; Tang, S. C. W.; Yiu, W. H.; Green, C. R.; Potter, J. A.; Siamantouras, E.; Squires, P. E.; Hills, C. E. Blocking Connexin-43 mediated hemichannel activity protects against early tubular injury in experimental chronic kidney disease. Cell Commun. Signal. 2020, 18). Membranes were blocked using Odyssey blocking buffer (LI-COR), then probed overnight with antibodies against E-cadherin (1:1000), N-cadherin (1:1000), claudin-2 (1:500) and ZO-1 (1:1000), Col I (1:1000), Col IV (1:2000), Fibronectin (1:4000), Laminin (1:500), ILK1 (1:500), beta-catenin (1:2000), Vimentin (1:500), MMP3 (1:500). Bands were visualised using an OdysseyFC and semi-quantified using ImageStudio (v5.2, LI-COR). Additionally, transepithelial electrical resistance (TER) was measured as a functional measure of epithelial cell-cell coupling and paracellular permeability.
# To examine the effect of danegaptide on TGFβ1-evoked changes in expression of ECM proteins, hPTEC cells were cultured in low (5 mM) glucose for 48 h, serum starved overnight and treated with TGFβ1 (10 ng/mL)±danegaptide (100 nM) for 48 h. Expression of the ECM proteins collagen I, collagen IV, fibronectin, Laminin, Integrin Linked Kinase 1, and Matrix Metalloproteinase 3 were assessed via western blotting.
# HK2 cells = test: Transepithelial electrical resistance (TER); type: cell-based, human; conditions: HK2 cells on transwell inserts
# Description: Primary hPTECs were cultured in low (5 mM) glucose±TGFβ1 (10 ng/mL)±danegaptide (100 nM) for 48 h. Expression of E-cadherin (ECAD), N-cadherin (NCAD) and vimentin (panel A), and Claudin-2 and Zonula Occludens (ZO-1) and b-catenin (panel B) were assessed via western blotting. TGFβ1 reduced E-cadherin, Claudin-2 and ZO-1 expression and increased N-cadherin and vimentin expression (**P<0.01, ***P<0.001; mean±SEM, n=3). Effects were partially or completely reversed by danegaptide (100 nM; ▴P<0.05 and ▴▴▴P<0.001; mean±SEM, n=3). Representative blots for each protein are shown, with expression normalised by re-probing for α-tubulin as a loading control. In panel C, transepithelial electrical resistance (TER) assessed the consequence of altered adherens & tight-junction protein expression on epithelial integrity. HK2 cells were cultured in low (5 mM) glucose on transwell inserts and transepithelial resistance measured.
# To determine if danegaptide can negate TGFβ1-mediated changes in adherens and tight junction proteins, hPTECs were incubated with TGFβ1 (10 ng/mL)±danegaptide (100 nM) for 48 h and expression of candidate proteins assessed by Western blotting. […] Bands were visualised using an OdysseyFC and semi-quantified using ImageStudio (v5.2, LI-COR). […]
# [1] = TGFβ1 10 ng/mL + danegaptide 100 nM
# T1 sequence (P17302 whole entry): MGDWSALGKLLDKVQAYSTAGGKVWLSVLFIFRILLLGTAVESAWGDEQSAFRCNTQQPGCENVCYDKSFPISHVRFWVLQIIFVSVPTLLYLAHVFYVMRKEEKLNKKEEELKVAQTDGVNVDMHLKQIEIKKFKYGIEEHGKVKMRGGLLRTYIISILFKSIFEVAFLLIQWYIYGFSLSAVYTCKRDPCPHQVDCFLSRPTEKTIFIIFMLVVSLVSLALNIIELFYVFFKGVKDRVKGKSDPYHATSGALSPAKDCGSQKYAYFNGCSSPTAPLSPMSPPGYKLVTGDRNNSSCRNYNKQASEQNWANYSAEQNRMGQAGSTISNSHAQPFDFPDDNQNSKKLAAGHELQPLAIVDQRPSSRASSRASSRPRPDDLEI
Compound,"carboxyfluorescein dye uptake, of control (Cx43 hemichannels; [1])","Integrin Linked Kinase 1 (ILK1) expression, compared to control (primary hPTECs; [1])","Matrix Metalloproteinase 3 (MMP3) expression, compared to control (primary hPTECs; [1])","collagen I expression, compared to control (primary hPTECs; [1])","collagen IV expression, compared to control (primary hPTECs; [1])","fibronectin expression, compared to control (primary hPTECs; [1])","laminin expression, compared to control (primary hPTECs; [1])",transepithelial resistance (HK2 cells; [1]),"carboxyfluorescein dye uptake, of control (Cx43 hemichannels; TGFβ1 10 ng/mL alone)","Integrin Linked Kinase 1 (ILK1) expression, compared to control (primary hPTECs; TGFβ1 10 ng/mL alone)","Matrix Metalloproteinase 3 (MMP3) expression, compared to control (primary hPTECs; TGFβ1 10 ng/mL alone)","collagen I expression, compared to control (primary hPTECs; TGFβ1 10 ng/mL alone)","collagen IV expression, compared to control (primary hPTECs; TGFβ1 10 ng/mL alone)","fibronectin expression, compared to control (primary hPTECs; TGFβ1 10 ng/mL alone)","laminin expression, compared to control (primary hPTECs; TGFβ1 10 ng/mL alone)",transepithelial resistance (HK2 cells; TGFβ1 10 ng/mL alone)
"NCC(=O)N1C[C@H](NC(=O)c2ccccc2)C[C@H]1C(=O)O [danegaptide, (2S,4R)-1-(2-aminoacetyl)-4-benzamidopyrrolidine2-carboxylic acid]",145±19.7%,251.8±33%,147.1±12.2%,180.7±27.3%,164.2±6.9%,161.3±4%,149±20.4%,36±2.08 Ω·cm2,–,–,–,–,–,–,–,–
TGFβ1: Recombinant hTGFβ1 (Sigma); pro-fibrotic cytokine used to stimulate the cells [reference compound],–,–,–,–,–,–,–,–,310.8±38.6%,378.9±16.8%,185.3±19.6%,334.6±30.14%,354.5±16.9%,301.7±50.4%,324.8±36.4%,10±1.53 Ω·cm2
